Assay results taken from patent US8759011B2, “Assay system for determining binding of hydrophobic drugs” (Nederlandse Organisatie voor …, priority 2009, dated 2014).

Tested on: human plasma
Experiment: plasma binding by partition extraction in dimethylsiloxane-coated 96-well plates
Type: in vitro ADME
Details: one plate
Description: 96-wells deepwell plates (lot 1450-401 Perkin-Elmer Lifesciences) were coated with dimethylsiloxane by making the solutions A-H here below in n-hexane. The used dimethylsiloxane (Silicone rubber, GE Silicones, Bergen op Zoom, The Netherlands) has a density of 1.06. Solution H contains 9.54 g dimethylsiloxane in 300 ml n-hexane.
From solutions A-H 100 μl is pipetted in row A-H of each plate. Plates were dried to air for minimally 18 hours (overnight).
To each dilution of plasma (solutions 1-12) an identical amount of the compound to be tested is added (about […]/200 μl solution). […] The solutions are incubated with the compound overnight at 4°.
The plasma solutions 1-12 are added to corresponding columns 1-12 of each plate (200 μl/well). Also 200 μl was added to a separate vessel to be able to correct for (plasma concentration dependent) solubilization. The next day the plates are emptied, washed once with aqua bidest and dried. When sufficient dry in all wells 200 μl counting solution (Optiphase Hisafe 2, Perkin Elmer Lifesciences) is added and the plates are covered. After incubation for minimally 4 hours under gently shaking the radioactivity in each plate is determined using liquid scintillation counting with a MicroBeta device (Perkin Elmer).
Additionally a total count was determined for each well. The total count is the count in the polymer coating+the count in the remaining fluid. The latter was determined by isolating 25 μl from solution in each well prior to emptying, and mixing with Optiphase (Perkin Elmer) followed by liquid scintillation counting.
1. For each datapoint for which the total count was determined, the recovery of total radioactivity was determined by comparing with the counts of the reference spiking solution. Cells with a total recovery <75% were excluded from further data analysis.
2. From all rows containing polymer, the a-specific binding, i.e. the corresponding counts from the row without polymer, was substracted.
3. Curve fitting was applied using the following formula for each cell:
Predicted counts in coating=Tc/((1/ffp+1/fp−1)×(fp×Vw)/Kpdms/Vp)), where
The above formula was fitted using ffp and Kpdms target parameters to be optimized using the least squares regression method over all wells that were included in the data analysis, by calculating the squared difference between the measured counts in the coating and the predicted counts in the coating. Results

## CC(C)c1nc(CN(C)C(=O)N[C@H](C(=O)N[C@@H](Cc2ccccc2)C[C@H](O)[C@H](Cc2ccccc2)NC(=O)OCc2cncs2)C(C)C)cs1 [Ritonavir]
Plasma 0 ml/ml, coating 0 nl
  counts in the polymer coating: 2561
Plasma 0 ml/ml, coating 4.1 nl
  counts in the polymer coating: 3274
Plasma 0 ml/ml, coating 10.2 nl
  counts in the polymer coating: 4727
Plasma 0 ml/ml, coating 25.6 nl
  counts in the polymer coating: 6222
Plasma 0 ml/ml, coating 64 nl
  counts in the polymer coating: 6561
Plasma 0 ml/ml, coating 160 nl
  counts in the polymer coating: 8997
Plasma 0 ml/ml, coating 400 nl
  counts in the polymer coating: 9656
Plasma 0 ml/ml, coating 1000 nl
  counts in the polymer coating: 10194
Plasma 0.0005 ml/ml, coating 0 nl
  counts in the polymer coating: 408
Plasma 0.0005 ml/ml, coating 4.1 nl
  counts in the polymer coating: 3323
Plasma 0.0005 ml/ml, coating 10.2 nl
  counts in the polymer coating: 5936
Plasma 0.0005 ml/ml, coating 25.6 nl
  counts in the polymer coating: 9146
Plasma 0.0005 ml/ml, coating 64 nl
  counts in the polymer coating: 14297
Plasma 0.0005 ml/ml, coating 160 nl
  counts in the polymer coating: 16590
Plasma 0.0005 ml/ml, coating 400 nl
  counts in the polymer coating: 17305
Plasma 0.0005 ml/ml, coating 1000 nl
  counts in the polymer coating: 17396
Plasma 0.0008 ml/ml, coating 0 nl
  counts in the polymer coating: 355
Plasma 0.0008 ml/ml, coating 4.1 nl
  counts in the polymer coating: 3033
Plasma 0.0008 ml/ml, coating 10.2 nl
  counts in the polymer coating: 6243
Plasma 0.0008 ml/ml, coating 25.6 nl
  counts in the polymer coating: 9649
Plasma 0.0008 ml/ml, coating 64 nl
  counts in the polymer coating: 15214
Plasma 0.0008 ml/ml, coating 160 nl
  counts in the polymer coating: 17344
Plasma 0.0008 ml/ml, coating 400 nl
  counts in the polymer coating: 18129
Plasma 0.0008 ml/ml, coating 1000 nl
  counts in the polymer coating: 18254
Plasma 0.001 ml/ml, coating 0 nl
  counts in the polymer coating: 368
Plasma 0.001 ml/ml, coating 4.1 nl
  counts in the polymer coating: 2677
Plasma 0.001 ml/ml, coating 10.2 nl
  counts in the polymer coating: 6668
Plasma 0.001 ml/ml, coating 25.6 nl
  counts in the polymer coating: 10037
Plasma 0.001 ml/ml, coating 64 nl
  counts in the polymer coating: 15293
Plasma 0.001 ml/ml, coating 160 nl
  counts in the polymer coating: 17749
Plasma 0.001 ml/ml, coating 400 nl
  counts in the polymer coating: 18063
Plasma 0.001 ml/ml, coating 1000 nl
  counts in the polymer coating: 18984
Plasma 0.003 ml/ml, coating 0 nl
  counts in the polymer coating: 250
Plasma 0.003 ml/ml, coating 4.1 nl
  counts in the polymer coating: 2391
Plasma 0.003 ml/ml, coating 10.2 nl
  counts in the polymer coating: 6779
Plasma 0.003 ml/ml, coating 25.6 nl
  counts in the polymer coating: 9818
Plasma 0.003 ml/ml, coating 64 nl
  counts in the polymer coating: 15161
Plasma 0.003 ml/ml, coating 160 nl
  counts in the polymer coating: 18112
Plasma 0.003 ml/ml, coating 400 nl
  counts in the polymer coating: 19067
Plasma 0.003 ml/ml, coating 1000 nl
  counts in the polymer coating: 19314
Plasma 0.005 ml/ml, coating 0 nl
  counts in the polymer coating: 266
Plasma 0.005 ml/ml, coating 4.1 nl
  counts in the polymer coating: 2725
Plasma 0.005 ml/ml, coating 10.2 nl
  counts in the polymer coating: 7054
Plasma 0.005 ml/ml, coating 25.6 nl
  counts in the polymer coating: 10234
Plasma 0.005 ml/ml, coating 64 nl
  counts in the polymer coating: 15908
Plasma 0.005 ml/ml, coating 160 nl
  counts in the polymer coating: 18628
Plasma 0.005 ml/ml, coating 400 nl
  counts in the polymer coating: 19174
Plasma 0.005 ml/ml, coating 1000 nl
  counts in the polymer coating: 19676
Plasma 0.008 ml/ml, coating 0 nl
  counts in the polymer coating: 262
Plasma 0.008 ml/ml, coating 4.1 nl
  counts in the polymer coating: 2605
Plasma 0.008 ml/ml, coating 10.2 nl
  counts in the polymer coating: 5943
Plasma 0.008 ml/ml, coating 25.6 nl
  counts in the polymer coating: 9899
Plasma 0.008 ml/ml, coating 64 nl
  counts in the polymer coating: 15892
Plasma 0.008 ml/ml, coating 160 nl
  counts in the polymer coating: 18582
Plasma 0.008 ml/ml, coating 400 nl
  counts in the polymer coating: 19405
Plasma 0.008 ml/ml, coating 1000 nl
  counts in the polymer coating: 19541
Plasma 0.01 ml/ml, coating 0 nl
  counts in the polymer coating: 260
Plasma 0.01 ml/ml, coating 4.1 nl
  counts in the polymer coating: 2644
Plasma 0.01 ml/ml, coating 10.2 nl
  counts in the polymer coating: 6466
Plasma 0.01 ml/ml, coating 25.6 nl
  counts in the polymer coating: 9247
Plasma 0.01 ml/ml, coating 64 nl
  counts in the polymer coating: 15112
Plasma 0.01 ml/ml, coating 160 nl
  counts in the polymer coating: 18647
Plasma 0.01 ml/ml, coating 400 nl
  counts in the polymer coating: 19137
Plasma 0.01 ml/ml, coating 1000 nl
  counts in the polymer coating: 19454
Plasma 0.02 ml/ml, coating 0 nl
  counts in the polymer coating: 208
Plasma 0.02 ml/ml, coating 4.1 nl
  counts in the polymer coating: 2135
Plasma 0.02 ml/ml, coating 10.2 nl
  counts in the polymer coating: 5288
Plasma 0.02 ml/ml, coating 25.6 nl
  counts in the polymer coating: 8673
Plasma 0.02 ml/ml, coating 64 nl
  counts in the polymer coating: 14665
Plasma 0.02 ml/ml, coating 160 nl
  counts in the polymer coating: 18017
Plasma 0.02 ml/ml, coating 400 nl
  counts in the polymer coating: 19188
Plasma 0.02 ml/ml, coating 1000 nl
  counts in the polymer coating: 19218
Plasma 0.03 ml/ml, coating 0 nl
  counts in the polymer coating: 195
Plasma 0.03 ml/ml, coating 4.1 nl
  counts in the polymer coating: 1925
Plasma 0.03 ml/ml, coating 10.2 nl
  counts in the polymer coating: 4066
Plasma 0.03 ml/ml, coating 25.6 nl
  counts in the polymer coating: 6969
Plasma 0.03 ml/ml, coating 64 nl
  counts in the polymer coating: 13475
Plasma 0.03 ml/ml, coating 160 nl
  counts in the polymer coating: 17384
Plasma 0.03 ml/ml, coating 400 nl
  counts in the polymer coating: 18707
Plasma 0.03 ml/ml, coating 1000 nl
  counts in the polymer coating: 19112
Plasma 0.04 ml/ml, coating 0 nl
  counts in the polymer coating: 156
Plasma 0.04 ml/ml, coating 4.1 nl
  counts in the polymer coating: 1501
Plasma 0.04 ml/ml, coating 10.2 nl
  counts in the polymer coating: 3633
Plasma 0.04 ml/ml, coating 25.6 nl
  counts in the polymer coating: 5932
Plasma 0.04 ml/ml, coating 64 nl
  counts in the polymer coating: 12160
Plasma 0.04 ml/ml, coating 160 nl
  counts in the polymer coating: 16322
Plasma 0.04 ml/ml, coating 400 nl
  counts in the polymer coating: 18174
Plasma 0.04 ml/ml, coating 1000 nl
  counts in the polymer coating: 18716
Plasma 0.05 ml/ml, coating 0 nl
  counts in the polymer coating: 124
Plasma 0.05 ml/ml, coating 4.1 nl
  counts in the polymer coating: 1143
Plasma 0.05 ml/ml, coating 10.2 nl
  counts in the polymer coating: 2760
Plasma 0.05 ml/ml, coating 25.6 nl
  counts in the polymer coating: 5080
Plasma 0.05 ml/ml, coating 64 nl
  counts in the polymer coating: 10938
Plasma 0.05 ml/ml, coating 160 nl
  counts in the polymer coating: 16100
Plasma 0.05 ml/ml, coating 400 nl
  counts in the polymer coating: 17730
Plasma 0.05 ml/ml, coating 1000 nl
  counts in the polymer coating: 18325
